Experimental data: patent US10000474B2, “Histone deacetylase inhibitors and uses thereof” (MUSC FOUNDATION FOR RESEARCH DEVELOPMENT, priority 2014, dated 2018)

Key:
Format in all cases: biochemical
Settings in all cases: test concentration not given; average of triplicate
[1] = biological target: T1, Recombinant human HDAC3/NcoR2 (Homo sapiens, UniProt O15379); test: HDAC inhibitory assay, HDAC3 (Boc-Lys(Ac)-AMC substrate)
T1 construct: purchased BPS Biosciences
Protocol: (§1) The compounds of Examples 1-12 and 14-16 were evaluated for their ability to act as inhibitors of human HDAC. The compound of Example 13 was not tested. Recombinant human HDAC1, HDAC2, HDAC3/NcoR2, HDAC5, HDAC6, HDAC8, HDAC9, HDAC10 and HDAC11 were purchased from BPS Biosciences. Recombinant human HDAC4 and HDAC7 were purchased from Millipore. The substrate Boc-Lys(Ac)-AMC and Boc-Lys(Tfa)-AMC were purchased from Bachem. The substrate Ac-RHK(Ac)K(Ac)-AMC was purchased from Enzo Life Sciences. Due to the different specific activities of each isoform, different amount of enzyme was used in each isoform screening assay. In these assays, trichostatin A (TSA), suberanilohydroxamic acid and diphenylacetohydroxamic acid (DPAHA) were employed as positive controls. All determinations were carried out in triplicate, and reported values were the average of these determinations, which in no case varied by more than 5%.
(§2) Then 25 μl of the Boc-Lys(Ac)-AMC substrate (50 μM final concentration) was added and incubated at 37° C. for 30-60 min, and followed by adding 50 μl of developer (1 mg/ml trypsin and 1 μM TSA). The last step was reading the samples in a SpectraMax M5 plate reader (Molecular Devices) at an excitation wavelength of 360 nm and an emission wavelength of 460 nm.

[2] = biological target: T2, Recombinant human HDAC5 (Homo sapiens, UniProt Q9UQL6); test: HDAC inhibitory assay, HDAC5 (Boc-Lys(Tfa)-AMC substrate)
T2 construct: purchased BPS Biosciences
Protocol: as §1
For evaluating the inhibition of class IIa HDACs (HDAC4, HDAC5, HDAC7 and HDAC9) and class IV HDAC (HDAC11), 10 μl of test samples were first incubated with 1 ng HDAC4 (specific activity=15400 pmol/min/μg), 5 ng HDAC5 (specific activity=2521 pmol/min/μg), 1 ng HDAC7 (specific activity=26340 pmol/min/μg), 5 ng HDAC9 (specific activity=3000 pmol/min/μg), and 500 ng HDAC11 (specific activity=1.8 pmol/min/μg) respectively. Then 25 μl of the Boc-Lys(Tfa)-AMC substrate (50 μM final concentration) was added and incubated at 37° C. for 30-60 min, and followed by adding 50 μl of developer. The last step was to read the samples in a SpectraMax M5 plate reader (Molecular Devices) at an excitation wavelength of 360 nm and an emission wavelength of 460 nm.

[3] = biological target: T3, Recombinant human HDAC6 (Homo sapiens, UniProt Q9UBN7); test: HDAC inhibitory assay, HDAC6 (Boc-Lys(Ac)-AMC substrate)
T3 construct: purchased BPS Biosciences
T3 sequence (Q9UBN7 1-1215): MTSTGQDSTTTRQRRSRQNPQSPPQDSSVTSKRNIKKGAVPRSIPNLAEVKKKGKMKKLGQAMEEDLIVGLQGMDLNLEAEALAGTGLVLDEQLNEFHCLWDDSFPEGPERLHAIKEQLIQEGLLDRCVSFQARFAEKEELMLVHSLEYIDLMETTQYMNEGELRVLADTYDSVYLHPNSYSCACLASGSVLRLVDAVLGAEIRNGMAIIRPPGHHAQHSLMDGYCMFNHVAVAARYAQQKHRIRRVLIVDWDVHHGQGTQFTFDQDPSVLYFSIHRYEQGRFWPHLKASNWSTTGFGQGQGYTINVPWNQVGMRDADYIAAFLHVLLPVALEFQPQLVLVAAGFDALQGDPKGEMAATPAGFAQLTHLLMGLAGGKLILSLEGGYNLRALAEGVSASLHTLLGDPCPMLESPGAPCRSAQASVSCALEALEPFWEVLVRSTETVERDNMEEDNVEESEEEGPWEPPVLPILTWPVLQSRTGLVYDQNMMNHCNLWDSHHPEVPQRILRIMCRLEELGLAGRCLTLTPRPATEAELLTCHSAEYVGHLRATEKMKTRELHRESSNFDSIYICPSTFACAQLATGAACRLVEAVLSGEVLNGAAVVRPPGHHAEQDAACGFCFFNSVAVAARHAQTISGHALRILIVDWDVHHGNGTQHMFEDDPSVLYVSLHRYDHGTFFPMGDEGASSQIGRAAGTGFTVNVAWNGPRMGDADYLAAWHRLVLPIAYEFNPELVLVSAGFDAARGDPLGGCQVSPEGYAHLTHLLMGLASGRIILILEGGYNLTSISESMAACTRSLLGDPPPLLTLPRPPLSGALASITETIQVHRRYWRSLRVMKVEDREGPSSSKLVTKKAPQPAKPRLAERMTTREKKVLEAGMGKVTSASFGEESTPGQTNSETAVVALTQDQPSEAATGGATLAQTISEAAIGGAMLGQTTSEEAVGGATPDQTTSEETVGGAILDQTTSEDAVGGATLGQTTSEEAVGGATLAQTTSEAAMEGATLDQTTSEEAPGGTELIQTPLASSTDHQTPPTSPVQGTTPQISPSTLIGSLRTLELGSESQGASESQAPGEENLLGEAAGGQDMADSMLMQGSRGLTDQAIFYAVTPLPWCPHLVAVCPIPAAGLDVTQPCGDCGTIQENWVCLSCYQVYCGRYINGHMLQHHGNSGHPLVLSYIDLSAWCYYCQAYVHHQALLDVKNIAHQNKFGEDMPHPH
Protocol: as §1, §2

[4] = biological target: T4, Recombinant human HDAC10 (Homo sapiens, UniProt Q969S8); test: HDAC inhibitory assay, HDAC10 (Boc-Lys(Ac)-AMC substrate)
T4 construct: purchased BPS Biosciences
T4 sequence (Q969S8 1-669): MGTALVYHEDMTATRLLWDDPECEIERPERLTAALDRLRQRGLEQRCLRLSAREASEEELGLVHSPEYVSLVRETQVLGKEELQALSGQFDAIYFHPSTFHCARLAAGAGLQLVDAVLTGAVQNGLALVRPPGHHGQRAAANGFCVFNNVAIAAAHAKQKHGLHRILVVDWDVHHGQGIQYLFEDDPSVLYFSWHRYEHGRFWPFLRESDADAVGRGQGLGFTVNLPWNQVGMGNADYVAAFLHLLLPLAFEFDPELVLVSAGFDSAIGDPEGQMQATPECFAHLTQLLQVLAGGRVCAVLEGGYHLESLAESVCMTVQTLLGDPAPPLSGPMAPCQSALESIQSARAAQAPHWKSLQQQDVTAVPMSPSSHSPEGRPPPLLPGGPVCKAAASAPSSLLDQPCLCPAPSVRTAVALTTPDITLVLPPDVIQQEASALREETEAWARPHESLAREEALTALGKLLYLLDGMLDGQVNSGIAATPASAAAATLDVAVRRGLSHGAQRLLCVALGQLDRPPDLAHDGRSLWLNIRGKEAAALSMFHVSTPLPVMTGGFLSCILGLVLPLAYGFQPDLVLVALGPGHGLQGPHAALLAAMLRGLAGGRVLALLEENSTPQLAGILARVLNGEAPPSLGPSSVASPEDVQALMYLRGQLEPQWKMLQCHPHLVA
Protocol: as §1, §2

T1 sequence (O15379 whole entry): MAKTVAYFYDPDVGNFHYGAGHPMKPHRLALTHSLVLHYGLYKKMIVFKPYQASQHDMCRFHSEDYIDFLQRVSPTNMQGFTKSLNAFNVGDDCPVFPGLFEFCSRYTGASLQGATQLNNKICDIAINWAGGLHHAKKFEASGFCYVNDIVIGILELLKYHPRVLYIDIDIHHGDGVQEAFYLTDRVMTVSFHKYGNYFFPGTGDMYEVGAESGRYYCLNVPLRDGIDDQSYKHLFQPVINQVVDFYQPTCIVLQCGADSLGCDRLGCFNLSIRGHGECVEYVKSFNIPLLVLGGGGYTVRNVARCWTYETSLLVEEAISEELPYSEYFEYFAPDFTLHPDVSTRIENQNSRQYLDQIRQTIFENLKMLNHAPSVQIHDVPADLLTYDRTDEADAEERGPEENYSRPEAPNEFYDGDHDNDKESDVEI
T1 sequence (Q9Y618 395-489 partner limits assumed): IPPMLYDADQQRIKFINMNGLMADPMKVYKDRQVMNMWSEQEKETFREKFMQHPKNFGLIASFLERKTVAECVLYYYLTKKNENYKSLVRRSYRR
T2 sequence (Q9UQL6 whole entry): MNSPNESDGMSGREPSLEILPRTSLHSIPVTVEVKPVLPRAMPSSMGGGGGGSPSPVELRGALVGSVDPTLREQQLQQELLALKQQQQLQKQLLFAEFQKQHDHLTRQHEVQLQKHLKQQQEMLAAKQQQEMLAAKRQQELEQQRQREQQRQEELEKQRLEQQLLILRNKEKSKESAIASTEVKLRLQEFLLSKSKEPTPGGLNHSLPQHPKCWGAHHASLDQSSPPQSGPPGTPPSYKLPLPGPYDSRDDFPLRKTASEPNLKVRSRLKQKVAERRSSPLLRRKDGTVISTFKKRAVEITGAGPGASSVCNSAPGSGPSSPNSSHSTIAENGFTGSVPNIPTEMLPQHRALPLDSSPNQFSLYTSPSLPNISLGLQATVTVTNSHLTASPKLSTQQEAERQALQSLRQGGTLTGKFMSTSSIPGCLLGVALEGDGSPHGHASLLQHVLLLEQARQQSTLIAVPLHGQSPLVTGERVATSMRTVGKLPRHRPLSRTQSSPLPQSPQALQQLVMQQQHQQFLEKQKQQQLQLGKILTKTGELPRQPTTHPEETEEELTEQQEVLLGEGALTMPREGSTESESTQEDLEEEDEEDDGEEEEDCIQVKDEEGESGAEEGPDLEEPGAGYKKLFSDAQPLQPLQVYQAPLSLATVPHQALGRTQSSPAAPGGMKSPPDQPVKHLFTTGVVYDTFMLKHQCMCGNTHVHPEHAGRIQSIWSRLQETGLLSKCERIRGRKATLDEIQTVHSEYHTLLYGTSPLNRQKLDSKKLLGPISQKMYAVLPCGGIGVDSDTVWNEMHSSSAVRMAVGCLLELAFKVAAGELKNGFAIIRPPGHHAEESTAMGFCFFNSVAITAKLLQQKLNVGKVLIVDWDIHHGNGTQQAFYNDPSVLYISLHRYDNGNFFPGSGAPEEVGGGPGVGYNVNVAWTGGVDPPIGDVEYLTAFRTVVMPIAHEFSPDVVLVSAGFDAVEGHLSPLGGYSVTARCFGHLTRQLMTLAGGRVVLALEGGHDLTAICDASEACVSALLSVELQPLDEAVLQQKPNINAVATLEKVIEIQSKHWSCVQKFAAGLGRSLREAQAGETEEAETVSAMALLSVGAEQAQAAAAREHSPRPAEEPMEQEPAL

**Q.** For `O=C(NCc1cccc2ccccc12)c1coc(-c2ccccc2O)n1` [Example 7, 2-(2-Hydroxyphenyl)-N-(naphthalen-1-ylmethyl)oxazole-4-carboxamide], which “HDAC 3 inhibitory activity” value [1] is on record?
**A.** 32.3%

**Q.** What about the “HDAC 5 inhibitory activity” value [2] of the same compound?
**A.** 3.2%

**Q.** And the “HDAC 6 inhibitory activity” value [3]?
**A.** 40.4%

**Q.** What about the “HDAC 10 inhibitory activity” value [4] of the same compound?
**A.** 44.5%

**Q.** Which results are given for `O=C(NCC(c1ccccc1)c1ccccc1)c1coc(-c2ccccc2O)n1` [Example 3, N-(2,2-Diphenylethyl)-2-(2-hydroxyphenyl)oxazole-4-carboxamide]?
**A.** HDAC 3 inhibitory activity [1]: 23.7%; HDAC 5 inhibitory activity [2]: 0%; HDAC 6 inhibitory activity [3]: 49.1%; HDAC 10 inhibitory activity [4]: 35.7%
